Results from patent US7166590B2, “Amino acid derivatives” (Ono Pharmaceutical Co., Ltd., priority 1997, dated 2007).
Counter-ions that a name gives are not always drawn.

molecular target: T1, N-type calcium channel (Homo sapiens, UniProt Q00975); experiment: Determination of inhibitory activity on N-type calcium channel (Fura-2 calcium influx, KCl depolarization, with nifedipine); assay type: cell-based; conditions: compound at final concentration of 3 μM, depolarized by 80 mM potassium chloride, Fura-2 fluorescence, read-out: Inhibitory activity on Ca influx (%)
T1 construct: endogenous in cells
Protocol: Determination of Inhibitory Activity on N-Type Calcium Channel:
Cell line was differentiated according to the method described in FEBS Letters, 235, 178-182, 1988. The cell was loaded with fluorescent reagent, Fura-2•AM (at the final concentration of 10 μM), at 37° C. for 30 minutes and suspended in Krebs-buffer containing HEPES (25 mM) to obtain the cell suspension. The obtained cell suspension was incubated in the presence or absence of the compounds of the present invention with nifedipine for 5 minutes. The cell was depolarized by adding potassium chloride solution (at the final concentration of 80 mM) thereto and then a fluorescence intensity at the emission wavelength of 500 nm excited by the UV of 340 nm and 380 nm alternately was measured using the intracellular calcium analyzer (Nippon Bunko Co., CAF-110). The inhibitory activity of the compound of the present invention (at the final concentration of 3 μM) on calcium influx into the cell was calculated from the difference in changing the fluorescence intensity at peak (ΔR) according to the following equation. [formula]

T1 sequence (Q00975 whole entry): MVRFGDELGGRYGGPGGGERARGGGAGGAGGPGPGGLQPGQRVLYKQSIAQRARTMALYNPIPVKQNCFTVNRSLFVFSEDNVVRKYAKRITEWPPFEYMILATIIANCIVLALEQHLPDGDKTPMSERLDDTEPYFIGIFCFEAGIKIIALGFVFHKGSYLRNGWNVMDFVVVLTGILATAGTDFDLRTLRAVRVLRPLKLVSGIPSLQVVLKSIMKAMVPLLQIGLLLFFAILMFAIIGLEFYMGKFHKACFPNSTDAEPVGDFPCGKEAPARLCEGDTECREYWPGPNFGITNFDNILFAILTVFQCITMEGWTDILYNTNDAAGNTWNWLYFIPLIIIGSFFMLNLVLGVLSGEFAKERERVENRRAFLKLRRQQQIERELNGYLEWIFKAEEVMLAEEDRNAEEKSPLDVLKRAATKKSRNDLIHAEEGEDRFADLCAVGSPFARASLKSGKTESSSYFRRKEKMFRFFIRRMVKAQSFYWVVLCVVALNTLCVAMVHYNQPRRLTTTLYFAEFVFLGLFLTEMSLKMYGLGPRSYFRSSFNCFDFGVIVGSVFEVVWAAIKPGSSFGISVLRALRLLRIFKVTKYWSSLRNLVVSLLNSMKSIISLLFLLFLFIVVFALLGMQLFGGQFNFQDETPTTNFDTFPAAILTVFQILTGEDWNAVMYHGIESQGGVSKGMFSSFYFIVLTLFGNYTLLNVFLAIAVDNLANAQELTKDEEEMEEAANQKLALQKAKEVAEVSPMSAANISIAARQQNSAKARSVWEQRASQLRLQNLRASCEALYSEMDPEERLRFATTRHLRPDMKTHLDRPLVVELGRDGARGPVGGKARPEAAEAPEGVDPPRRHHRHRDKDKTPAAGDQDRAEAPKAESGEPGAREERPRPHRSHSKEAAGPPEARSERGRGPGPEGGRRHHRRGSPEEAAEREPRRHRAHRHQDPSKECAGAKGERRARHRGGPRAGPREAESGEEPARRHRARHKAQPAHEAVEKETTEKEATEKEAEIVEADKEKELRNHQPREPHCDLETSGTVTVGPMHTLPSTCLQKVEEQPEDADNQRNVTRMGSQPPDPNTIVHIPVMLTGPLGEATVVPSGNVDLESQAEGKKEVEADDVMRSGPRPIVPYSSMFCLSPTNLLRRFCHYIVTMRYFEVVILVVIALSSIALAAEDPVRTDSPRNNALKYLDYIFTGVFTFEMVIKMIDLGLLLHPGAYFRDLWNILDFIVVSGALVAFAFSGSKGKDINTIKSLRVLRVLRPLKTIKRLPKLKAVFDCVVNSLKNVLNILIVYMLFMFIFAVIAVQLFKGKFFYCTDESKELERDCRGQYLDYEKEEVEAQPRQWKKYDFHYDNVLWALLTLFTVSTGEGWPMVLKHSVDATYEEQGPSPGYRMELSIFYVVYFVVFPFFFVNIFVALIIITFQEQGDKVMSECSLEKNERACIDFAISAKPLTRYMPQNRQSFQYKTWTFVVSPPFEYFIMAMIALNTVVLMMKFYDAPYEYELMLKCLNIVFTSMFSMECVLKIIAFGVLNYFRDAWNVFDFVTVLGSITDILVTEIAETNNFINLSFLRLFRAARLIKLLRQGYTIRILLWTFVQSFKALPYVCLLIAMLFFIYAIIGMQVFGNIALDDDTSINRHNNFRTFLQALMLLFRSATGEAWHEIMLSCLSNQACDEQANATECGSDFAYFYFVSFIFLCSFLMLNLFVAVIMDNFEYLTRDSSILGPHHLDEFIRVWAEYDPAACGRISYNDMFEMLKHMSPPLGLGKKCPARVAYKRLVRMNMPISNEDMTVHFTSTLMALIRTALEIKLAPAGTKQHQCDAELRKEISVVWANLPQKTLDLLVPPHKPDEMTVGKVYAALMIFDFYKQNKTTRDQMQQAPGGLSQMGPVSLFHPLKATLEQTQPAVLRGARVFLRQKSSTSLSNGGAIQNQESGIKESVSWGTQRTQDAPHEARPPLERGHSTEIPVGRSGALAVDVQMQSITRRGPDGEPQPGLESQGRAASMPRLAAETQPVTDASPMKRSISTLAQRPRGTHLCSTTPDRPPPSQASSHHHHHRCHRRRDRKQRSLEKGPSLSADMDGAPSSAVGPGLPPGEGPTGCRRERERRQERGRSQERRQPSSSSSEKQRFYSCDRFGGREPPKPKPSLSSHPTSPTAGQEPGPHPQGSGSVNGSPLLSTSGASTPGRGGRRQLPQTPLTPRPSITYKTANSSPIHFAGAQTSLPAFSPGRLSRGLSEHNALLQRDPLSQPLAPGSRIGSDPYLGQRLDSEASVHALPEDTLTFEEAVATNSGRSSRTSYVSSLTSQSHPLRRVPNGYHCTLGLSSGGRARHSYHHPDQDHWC

Row | Structure (SMILES) | inhibition at 3 µM
1 | O=C(N[C@@H](CSCC1CCCCC1)C(=O)NCc1ccc(Oc2ccccc2)cc1)[C@@H]1CSCN1 [Example 9(13), (2R)-N-(4-phenoxybenzyl)-3-cyclohexylmethylthio-2-((4R)-thiazolidin-4-ylcarbonylamino)propanamide.hydrochloride] | 88%
2 | COc1ccc(CNC(=O)[C@H](COCC2CCCCC2)NC(=O)OC(C)(C)C)cc1 [compound 2] | 75%
3 | CC(C)(C)OC(=O)N1CSC[C@H]1C(=O)N[C@@H](CSCC1CCCCC1)C(=O)NCc1ccc(Oc2ccccc2)cc1 [Example 6(68), (2R)-N-(4-penoxybenzyl)-3-cyclohexylmethylthio-2-((4R)-3-t-butoxycarbonyl-thiazolidin-4-ylcarbonylamino)propanamide] | 73%
4 | COc1ccc(CNC(=O)[C@H](CSCC2CCCCC2)NC(=O)[C@@H]2CSCN2C(=O)OC(C)(C)C)cc1 [Example 6(44), (2R)-N-(4-methoxybenzyl)-3-cyclohexylmethylthio-2-((4R)-3-t-butoxycarbonyl-thiazolidin-4-ylcarbonylamino)propanamide] | 86%
5 | COc1ccc(CNC(=O)[C@H](COCC2CCCCC2)NS(=O)(=O)c2ccccc2)cc1 [Example 6(22), (2S)-N-(4-methoxybenzyl)-3-cyclohexylmethoxy-2-phenylsulfonylamino-propanamide] | 79%
6 | CC(C)(C)OC(=O)N[C@@H](CCC(=O)OCc1ccc([N+](=O)[O-])cc1)C(=O)OC1CCCC1 [Example 2(29), (2S)-4-(4-nitrobenzyloxycarbonyl)-2-t-butoxycarbonylaminobutanoic acid.cyclopentyl ester] | 75%
7 | COc1ccc(CNC(=O)[C@H](COCC2CCCCC2)NC(=O)C2CCCCC2)cc1 [Example 6(27), (2S)-N-(4-methoxybenzyl)-3-cyclohexylmethoxy-2-cyclohexylcarbonylamino-propanamide] | 72%
8 | COc1ccc(CNC(=O)[C@H](CSCC2CCCCC2)NC(=O)OC(C)(C)C)cc1 [Example 2(80), (2R)-N-(4-methoxybenzyl)-3-cyclohexylmethylthio-2-t-butoxycarbonylamino-propanamide] | 87%
9 | CC(C)(C)OC(=O)N[C@@H](COCC1CCCCC1)C(=O)NCc1ccc([N+](=O)[O-])cc1 [Example 2(86), (2S)-N-(4-nitrobenzyl)-3-cyclohexylmethoxy-2-t-butoxycarbonylamino-propanamide] | 83%
